Laboratory results: US8980819B2, “4(3)-(4-hydroxy-4-methylpentyl)-3-cyclohexene-1-carbonitrile” (Kao Corporation, priority 2013, dated 2015)

Experiment: Stability in an aqueous vehicle
Format: physicochemical
Conditions: no test data printed

4(3)-(4-hydroxy-4-methylpentyl)-3-cyclohexene-1-carbonitrile [Example 1]
Stability in an aqueous vehicle: stable in an aqueous vehicle
